Bridge positions count the residues as written; N and C are the ends. Ends that are not written are not given here.
Key:
[1] = test system: seabream postvitellogenic ovarian explants; assay: Avp production by ovarian explants in vitro (Avp ELISA); format: cell-based, gilthead seabream (Sparus aurata)
Source text: These observations would be compatible with a role of Avp regulating the intracellular trafficking of Aqp1ab1 and Aqp1ab2 in maturing oocytes, as observed in surrogate amphibian oocytes. […] To test this hypothesis, we carried out in vitro experiments in which the production of Avp by postvitellogenic ovarian explants in response to piscine single-chain recombinant […] evaluated by a custom made Avp enzyme-linked immunosorbent assay (ELISA) ( Supplementary Figure S3 ). To investigate the specificity of the rLh potential regulation, in these experiments we also tested the effect of single-chain recombinant follicle-stimulating hormone (rFsh). […] Pieces of the ovary at the […] stage (400-500 mg) were dissected from naturally spawning seabream females and placed in Petri dishes containing 75% Leivovitz L-15 culture medium with L-glutamine and 100 μg/ml gentamicin at pH 7.5. […] Control groups were treated with an equivalent volume of the cell culture medium used for […] production, or with 0.5% ethanol. After incubation, explants were frozen and stored at -80°C until Avp extraction and determination by ELISA. To determine the Avp levels in ovarian explants incubated in vitro, a competitive ELISA was developed using the specific anti-Avp antiserum and the synthetic Avp to create the standard curve ( Supplementary Figure S3 ). For this, polystyrene ELISA microtiter plates (F96 Maxisorp Nunc Immuno Plates; […] Ovarian explants were homogenized on ice with a glass dounce tissue homogenizer in water containing 0.25% glacial acetic acid in a proportion of 500 μl/100 mg tissue. After incubation of the homogenate at 100°C for 5 min, the samples were centrifuged a 10,000 × g for 5 min at 4°C, and the supernatant recovered in a new tube. […] Absorbance was read at 450 nm with a VICTOR3TM Multilabel Plate Reader (PerkinElmer, Inc.). […] The intra-assay coefficient of variation was 4.64% (calculated by assaying eight replicates of an ovarian sample at 50% of maximum binding on the same plate), whereas the inter-assay coefficient of variation was 8.35%.

[2] = test system: X. laevis oocytes expressing the seabream Avpr1aa and Aqp1aa, Aqp1ab1 or Aqp1ab2 plus YwhazLb; assay: Swelling assay (osmotic water permeability, P f) of X. laevis oocytes expressing Avpr1aa and TSA1C aquaporins; format: cell-based
[3] = test system: seabream ovarian follicles; assay: In vitro incubation of isolated seabream ovarian follicles (immunostaining, 3H2O uptake, co-immunoprecipitation); format: cell-based, gilthead seabream (Sparus aurata); settings: for Avp-mediated increase in phosphorylation of Aqp1ab1 and Aqp1ab2 and binding of Aqp1ab2 to YwhazLb: 10 µM inhibitor plus 10 µM Avp; for Avp-induced differential localization of Aqp1ab1 and Aqp1ab2 in the oocyte microvilli: 10 µM inhibitor preincubated prior to 10 µM Avp
Procedure: To investigate the physiological significance of the Avp regulation of the […] channel trafficking in seabream oocytes, we determined the dynamics of the subcellular localization of endogenous Aqp1aa, Aqp1ab1, and Aqp1ab2, and their interactions with YwhazLa and -zLb proteins, after Avp treatment in vitro, using the Aqp1ab1- and Aqp1ab2-specific antisera and commercial mammalian YWHAZ antibodies specific for seabream YwhazLa/b or -zLb ([12]). For this, we incubated isolated seabream vitellogenic ovarian follicles with Avp, in the presence or absence of the seabream Avpr1aa and Avpr2aa antagonist TLV or the PKA inhibitor H89, while control follicles were exposed to DMSO vehicle alone ( Figure 8 ).
In other experiments, groups of fully-grown postvitellogenic ovarian follicles (n = 10), manually isolated from the ovary, were incubated with 10 µM Avp in the same culture medium as above, in the presence or absence of 10 µM of the receptor antagonist TLV, or with 0.1% DMSO (controls) for 6 h at 18°C. After incubation, follicles were fixed for immunofluorescence microscopy, frozen in liquid nitrogen and stored at -80°C for further protein extraction, or processed for water uptake assays using radiolabeled water as previously described ([12]).
Isolated ovarian follicles were processed for immunofluorescence microscopy as previously described ([65], [66]). Control sections were incubated with antibodies (1:400 dilution) preadsorbed with the corresponding peptides used for immunization (for aquaporin antibodies), or with the Avp or Oxt synthetic peptides. Secondary antibodies were sheep anti-rabbit IgG Cy3 (Merck #C2306) or goat anti-chicken IgY Alexa Fluor 488 (Invitrogen #A11039) at a 1:1,000 dilution. Sections were counterstained with DAPI (1:10,000), and mounted with Fluoromount™ Aqueous Mounting Medium (Merck #F4680). Immunofluorescence was observed and documented with a Zeiss Axio Imager Z1/Apotome fluorescent microscope (Carl Zeiss Corp.). Changes in Aqp1ab1 and Aqp1ab2 in the oocyte plasma membrane after Avp treatment were evaluated using the ImageJ software v.1.52o (https://imagej.nih.gov/ij/) as previously described ([12]).
X. laevis oocytes and seabream follicles (n = 10) were homogenized in the lysis buffer from the Pierce™ Crosslink Magnetic IP/Co-IP Kit (Pierce Thermo Fisher Scientific, #88805) with a bouncer on ice, and centrifuged at 14,000 × g for 1 min. An aliquot (10%) of the protein extract was collected as “input” and mixed with 2 × Laemmli sample buffer, whereas the remaining extract was incubated overnight at 4°C under constant agitation with magnetic beads previously coated with anti-Aqp1ab1 or anti-Aqp1ab2 antibodies. For rabbit primary antibodies, the immunoprecipitation was carried out using the kit indicated above, and final eluted proteins in 50 µl of elution buffer were mixed with 4 × Laemmli sample buffer supplemented with protease and phosphatase inhibitors. For chicken antibodies, the immunoprecipitation was performed using Dynabeads™ M-280 Tosylactivated (Invitrogen Thermo Fisher Scientific, #14203) following the manufacturer’s instructions. The input and immunoprecipitated samples were immunoblotted as indicated above.

[4] = test system: X. laevis oocytes expressing the seabream Avpr2aa and Aqp1aa, Aqp1ab1 or Aqp1ab2 plus YwhazLb; assay: Swelling assay (osmotic water permeability, P f) of X. laevis oocytes expressing Avpr2aa and TSA1C aquaporins; format: cell-based
seabream Avpr2aa = assay: Activation of seabream Avpr2aa in transfected HEK293T cells (pCRE-luc / pSRE-luc reporters, Fluo-4 AM Ca2+); format: cell-based, gilthead seabream (Sparus aurata); settings: for effect on Avpr2aa activation: antagonist 10^-12 to 10^-5 M before 10^-8 M Avp
seabream Oxtrb = seabream Oxtrb (Sparus aurata, UniProt R9WVY7); assay: Activation of seabream Oxtrb in transfected HEK293T cells (pCRE-luc / pSRE-luc reporters, Fluo-4 AM Ca2+); format: cell-based, gilthead seabream (Sparus aurata); settings: for effect on Oxtrb activation: antagonist 10^-12 to 10^-5 M before 10^-8 M Oxt
seabream Avpr1aa = seabream Avpr1aa (Sparus aurata, UniProt R9X0I6); assay: Activation of seabream Avpr1aa in transfected HEK293T cells (pCRE-luc / pSRE-luc reporters, Fluo-4 AM Ca2+); format: cell-based, gilthead seabream (Sparus aurata); settings: for IC50: antagonist 1 h before 10^-8 M Avp, HEK293T, read-out: IC50, inhibition of Avpr1aa activation
[5] = target: seabream oxytocin receptor Oxtrb (gilthead seabream (Sparus aurata))
[6] = target: seabream arginine vasopressin receptor Avpr1aa (gilthead seabream (Sparus aurata))
[7] = target: seabream arginine vasopressin receptor Avpr1aa (gilthead seabream (Sparus aurata)); remark: listed apart in the source
[8] = 10 µM Avp, co-immunoprecipitation and immunoblotting

C[C@@H](O)[C@@]1(O)CC[C@H]2[C@@H]3CCC4=CC(=O)CC[C@]4(C)[C@H]3CC[C@@]21C [17,20β-P, 17α,20β-dihydroxypregn-4-en-3-one]
increase in Avp synthesis in ovarian explants ([1]; 0.1 µg/ml, ~20 h): 3 fold

CN1CCCC1CCn1cc(C2=C(c3c[nH]c4ccccc34)C(=O)NC2=O)c2ccccc21 (centres unmarked) [Bim-II, bisindolylmaleimide II]
Avp-induced inhibition of P f ([2]; Avpr1aa+Aqp1aa oocytes preincubated with 10 µM inhibitor 1 h before 10 µM Avp): prevented

O=S(=O)(NCCNC/C=C/c1ccc(Br)cc1)c1cccc2cnccc12 [H89]
Avp-mediated increase in phosphorylation of Aqp1ab1 and Aqp1ab2 and binding of Aqp1ab2 to YwhazLb [3]: blocked
Avp-induced differential localization of Aqp1ab1 and Aqp1ab2 in the oocyte microvilli [3]: prevented
water permeability of follicles (3H2O uptake) in the presence of Avp plus inhibitor ([3]; not told): reduced
positive effect of Avp on plasma membrane trafficking of wild-type Aqp1ab1 and Aqp1ab1-S156A [4]: equally abolished
Avp-induced insertion of Aqp1ab1 or Aqp1ab2 into the oocyte plasma membrane / P f increase ([4]; Avpr2aa oocytes, 10 µM inhibitor 1 h before 10 µM Avp): prevented

COc1cc(OC2CCN(C(C)=O)CC2)ccc1C(=O)N1CCC(N2C(=O)OCc3ccccc32)CC1 [L-371,257, 1-(1-[4-[(N-acetyl-4-piperidinyl)oxy]-2-methoxybenzoyl]piperidin-4-yl)-4H-3,1-benzoxazin-2(1H)-one]
effect on Avpr2aa activation (seabream Avpr2aa): no effect

C=C[C@]12CCC(=O)C=C1CC[C@H]1[C@@H]3CC[C@H](C(C)=O)[C@@]3(C)CC[C@@H]12 [OD 02-0, 10-ethenyl-19-norprogesterone]
Avp synthesis in ovarian explants in the absence of 17,20β-P ([1]; 10 µM, ~20 h): not reproduced

CC#C[C@]1(O)CC[C@H]2[C@@H]3CCC4=CC(=O)CCC4=C3[C@@H](c3ccc(N(C)C)cc3)C[C@@]21C [RU486]
17,20β-P-induced increase in Avp synthesis ([1]; 100 µM inhibitor with 0.1 µg/ml 17,20β-P): completely abolished

COc1ccc(S(=O)(=O)N2c3ccc(Cl)cc3[C@](O)(c3ccccc3Cl)[C@@H]2C(=O)N2CCC[C@H]2C(N)=O)cc1OC [SR49059]
effect on Oxtrb activation (seabream Oxtrb): not affected
effect on Avpr2aa activation (seabream Avpr2aa): inhibited
IC50 (seabream Avpr1aa): ~1 nM

Cc1ccccc1C(=O)Nc1ccc(C(=O)N2CCCC(O)c3cc(Cl)ccc32)c(C)c1 (centres unmarked) [TLV, 7-Chloro-5-hydroxy-1-[2-methyl-4-(2-methylbenzoyl-amino)benzoyl]-2,3,4,5-tetrahydro-1H-1-benzazepine]
effect on Oxtrb activation (seabream Oxtrb): not affected
water permeability of follicles (3H2O uptake) in the presence of Avp plus inhibitor ([3]; 10 µM Avp plus 10 µM inhibitor): reduced
Avp-mediated increase in phosphorylation of Aqp1ab1 and Aqp1ab2 and binding of Aqp1ab2 to YwhazLb [3]: blocked
Avp-induced differential localization of Aqp1ab1 and Aqp1ab2 in the oocyte microvilli [3]: prevented
effect on Avpr2aa activation (seabream Avpr2aa): inhibited
potency at blocking Avpr2aa relative to SR49059 (seabream Avpr2aa; antagonist before 10^-8 M Avp): ~ 10 times more potent
IC50 (seabream Avpr1aa): ~1 nM

CYIQNCPRG-NH2 (ends and bridges not checked) [Avp]
reduction of P f ([2]; oocytes expressing Avpr1aa + Aqp1aa, 10 µM Avp, 3 h): 80%
oocyte P f triggered by FSK exposure ([2]; oocytes expressing Avpr1aa + Aqp1ab2 (+YwhazLb), 10 µM Avp, 10 µM FSK): did not affect
intracellular Ca2+ concentration ([Ca2+]i) (seabream Oxtrb; HEK293T cells expressing Oxtrb, Fluo-4 AM): only a slight increase
meiotic maturation or oocyte hydration ([3]; 10 µM Avp, 6 h, 18°C): did not induce
phosphorylation of Aqp1ab1 [3, 8]: more phosphorylated
phosphorylation of Aqp1ab2 [3, 8]: increased
localization of Aqp1aa (follicular epithelium) ([3]; 10 µM Avp, immunofluorescence): did not appear to change
localization of Aqp1ab1 immunoreactivity ([3]; 10 µM Avp, immunofluorescence): more concentrated in the most distal part of the microvilli
localization of Aqp1ab2 channel ([3]; 10 µM Avp, immunofluorescence): localized in a more basal region of the microvilli
water permeability of follicles (3H2O uptake) ([3]; not told): higher
EC50 (seabream Avpr2aa; Avp on Avpr2aa, HEK293T, read-out: approximate EC50 on cognate receptor): ~10 nM
PKC activation (pSRE-luc) (seabream Avpr2aa; HEK293T cells expressing Avpr2aa): not activated
pCRE-induced luciferase activity (cAMP) (seabream Avpr2aa; HEK293T cells expressing Avpr2aa, 10^-12 to 10^-5 M): potent dose-dependent response
intracellular Ca2+ concentration ([Ca2+]i) (seabream Avpr2aa; HEK293T cells expressing Avpr2aa, Fluo-4 AM): not affected
pCRE-mediated luciferase activity (cAMP) (seabream Avpr1aa; HEK293T cells expressing Avpr1aa): did not induce measurable increases
pSRE-induced luciferase activity (PKC activation) (seabream Avpr1aa; HEK293T cells expressing Avpr1aa, 10^-12 to 10^-5 M, 3 h): concentration-dependent increase
intracellular Ca2+ concentration ([Ca2+]i) (seabream Avpr1aa; HEK293T cells expressing Avpr1aa, Fluo-4 AM): concentration-dependent increase
P f ([4]; oocytes co-expressing Avpr2aa and Aqp1aa, 10 µM Avp): did not change
increase in P f ([4]; oocytes expressing Avpr2aa + Aqp1ab1, 10 µM Avp): ~ 2 fold
increase in P f ([4]; oocytes expressing Avpr2aa + Aqp1ab2+YwhazLb, without FSK pretreatment, 10 µM Avp): ~ 4 fold

CYISNCPIG-NH2 (disulfide 1-6; ends not checked) [oxytocin (Oxt, formerly isotocin), synthetic nonapeptide]
EC50 of receptor activation (pSRE-luciferase activity and [Ca2+]i) in HEK293T cells expressing Oxtrb, Oxt 10^-12 to 10^-5 M [5]: 1e-08 M
EC50 of cross-activation of Avpr1aa by Oxt in HEK293T cells (Figure 4D), against that of Avp (fold (EC50 of Oxt over EC50 of Avp)) [6]: 10

CYIQNCPRG-NH2 (disulfide 1-6; ends not checked) [arginine vasopressin (Avp, formerly vasotocin), synthetic nonapeptide]
EC50 of receptor activation (pSRE-luciferase activity and [Ca2+]i) in HEK293T cells expressing Avpr1aa, Avp 10^-12 to 10^-5 M [7]: 1e-08 M
EC50 of PKC (pSRE-luciferase) activation and [Ca2+]i increase in HEK293T cells, Avp on Avpr1aa against Oxt on Oxtrb ([6]; scale: fold): 10
